Assay results as given in article PMC4746387, “A Bioactivity-Based Method for Screening, Identification of Lipase Inhibitors, and Clarifying the Effects of Processing Time on Lipase Inhibitory Activity of Polygonum Multiflorum” (Evidence-based Complementary and Alternative Medicine : eCAM, 2016).
Where two headings read alike, the source gives them in different places.

Assays:
[1] = biological target: T1, lipase (Sus scrofa, UniProt P00591); assay: Assay for lipase inhibitory activity (4-methylumbelliferyl oleate substrate, fluorescence of 4-methylumbelliferone); assay type: biochemical; conditions: for lipase inhibition ratio: at the concentration of 1.0 mg/mL; for IC50: reference standards (purity > 98%), eight diluted concentrations, 25°C, 20 min
T1 construct: purchased Solar Bio Science Co. Ltd. (Beijing, China) L3126
T1 sequence (P00591 1-450): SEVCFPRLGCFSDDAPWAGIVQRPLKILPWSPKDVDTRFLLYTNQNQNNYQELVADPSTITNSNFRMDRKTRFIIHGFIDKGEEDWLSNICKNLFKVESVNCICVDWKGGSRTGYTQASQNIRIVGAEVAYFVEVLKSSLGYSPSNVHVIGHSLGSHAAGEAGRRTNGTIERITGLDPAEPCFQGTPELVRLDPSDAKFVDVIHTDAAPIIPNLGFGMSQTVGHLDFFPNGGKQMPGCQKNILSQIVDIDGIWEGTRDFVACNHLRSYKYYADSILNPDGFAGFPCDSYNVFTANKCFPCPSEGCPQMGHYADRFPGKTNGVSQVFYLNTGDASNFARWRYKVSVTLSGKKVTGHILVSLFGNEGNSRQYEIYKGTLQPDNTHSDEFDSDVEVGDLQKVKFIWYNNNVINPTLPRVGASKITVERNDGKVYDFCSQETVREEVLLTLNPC
Protocol: 4-Methylumbelliferyl oleate (4.406 mg) was accurately weighed and dissolved by Tris-HCl solution (pH 8.0, 1.3 mM NaCl, and 1.3 mM CaCl2) with the final concentration of 0.1 mM. 100 mg lipase was dissolved with deionized water and the insoluble substances were removed by centrifugation at 14,000 rpm for 10 min. Finally, the concentration of enzyme solution was 1.0 mg/mL.
Gallic acid, catechin, epicatechin, polydatin, 2,3,5,4′-tetrahydroxystilbene-2-O-β-D-glucoside, resveratrol, emodin-8-O-glucoside, physcion-8-O-glucoside, rhein, emodin, and physcion with the concentration of 1.0 mg/mL were prepared in methanol for quality control. Rhein, emodin, and physcion were dissolved in DMSO (Dimethyl Sulfoxide) with suitable concentrations. The reference standards solution was diluted serially with 10% methanol for the bioassays. The concentrations of DMSO in a series of samples at different concentrations were less than 0.1% (v/v). […] It was prepared with 10% methanol and diluted to a series of different concentrations.
(§1) The assay of lipase was performed according to previous method with slight modifications. 25 μL test samples and 25 μL lipase solution were mixed together. Then, 50 μL 4-methylumbelliferyl oleate was added to the mixture. After incubating at 25°C for 20 min, 100 μL sodium citrate (0.1 M, pH 4.2) was added to stop the reaction. Finally, the amount of 4-methylumbelliferone released by lipase was measured by microplate reader at an excitation wavelength of 355 nm and an emission wavelength of 460 nm. The inhibitory activity was calculated by the formula: inhibition (%) = [1 − (A sample/A control)] × 100, where A sample and A control were absorbance of the test sample and the control, respectively.
In the bioassay experiments, all the analysis was carried out in triplicate. All values were expressed in the form of mean ± standard deviation (SD); IC50 values were determined by Graph Pad Prism 5 software.

[2] = biological target: T1, lipase; assay: Lipase inhibitory activity of enriched UHPLC fractions of P. multiflorum extract and their contribution to total activity (orlistat potency units); assay type: biochemical; conditions: for lipase inhibitory effect of fractions of peaks: fractions of P. multiflorum extract enriched for 40 and 60 times, Figure 1; for contribution to the total lipase inhibitory activity: potency of individual fraction/total lipase inhibitory × 100%, orlistat equivalent potency units
Protocol: When the P. multiflorum extract was injected into the UHPLC system, the fraction collector (BSZ-100, Shanghai QingpuHuxi Instrument, Shanghai, China) was used for the fraction collection by setting the time interval at 20 s. Then, the fractions were collected and evaporated to dryness by nitrogen gas. The residues were reconstituted and diluted for bioassays.
as §1
The extract was injected in UHPLC for the separation of the components and all fractions were collected for the bioassays. The lipase inhibitory effect was expressed as inhibition ratio (%), which could be calculated by the above mentioned formula. The time interval of fraction collector was set at 20 s according to the resolution and peak shape in the chromatogram. […] The fractions from the same peak were combined.
The potency calibration curve was constructed by plotting the potency (y) against the corresponding inhibition ratio (x). […] Then, the potency of the enriched fractions was determined by the curve mentioned above. […] The contribution of individual fractions was calculated by the formula: contribution (%) = potency of individual fraction/the total lipase inhibitory × 100%.

[3] = read-out: IC50 (μg/mL) (converted)

Row | Compound | lipase inhibition ratio [1] | lipase inhibitory effect of fractions of peaks [2] | IC50 [1] | contribution to the total lipase inhibitory activity [2] | IC50 [1, 3]
1 | O.Oc1cc(O)c2c(c1)O[C@H](c1ccc(O)c(O)c1)[C@@H](O)C2 [Catechin] | ≤ 50% | relatively weak inhibitory effect | – | – | –
2 | Cc1cc(O[C@@H]2O[C@H](CO)[C@@H](O)[C@H](O)[C@H]2O)c2c(c1)C(=O)c1cc(O)cc(O)c1C2=O [Emodin-8-O-glucoside] | – | strong inhibition | 296.0 µg/mL | less than 10% | –
3 | Cc1cc(O)c2c(c1)C(=O)c1cc(O)cc(O)c1C2=O [Emodin] | – | strong inhibition | – | less than 10% | 1290 µM
4 | Oc1cc(O)c2c(c1)O[C@H](c1ccc(O)c(O)c1)[C@H](O)C2 [Epicatechin] | ≤ 50% | relatively weak inhibitory effect | – | – | –
5 | O=C(O)c1cc(O)c(O)c(O)c1 [Gallic acid] | ≤ 50% | relatively weak inhibitory effect | – | – | –
6 | COc1cc(O)c2c(c1)C(=O)c1cc(C)cc(OC3OC(CO)C(O)C(O)C3O)c1C2=O (stereo not shown) [Physcion-8-O-glucoside] | – | strong inhibition | 421.5 µg/mL | – | –
7 | COc1cc(O)c2c(c1)C(=O)c1cc(C)cc(O)c1C2=O [Physcion] | – | strong inhibition | – | less than 10% | 2860 µM
8 | OC[C@H]1O[C@@H](Oc2cc(O)cc(/C=C/c3ccc(O)cc3)c2)[C@H](O)[C@@H](O)[C@@H]1O [Polydatin] | – | relatively weak inhibitory effect | – | – | –
9 | Oc1ccc(/C=C/c2cc(O)cc(O)c2)cc1 [Resveratrol] | – | strong inhibition | – | – | 2470 µM
10 | O=C(O)c1cc(O)c2c(c1)C(=O)c1cccc(O)c1C2=O [Rhein] | – | strong inhibition | – | – | 813 µM
